Measured values published in the supplement of paper PMC11061612.

Assays:
Assay in all cases: combination Emax (second highest fraction inhibited in the dose matrix, 72 h); higher = more inhibition; extreme values may be limits of the assay
[1] = system: GI-1 (Glioblastoma)
Outline: (§1)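 Bliss excess equals the observed combination effect minus the expected value EA + EB − EA·EB, where EA and EB are the effects of each agent alone. Combination Emax is the second-highest inhibition within the matrix. Inhibition was scaled from CellTiter-Glo 2.0 luminescence, with 0 set by vehicle wells and 1 by blank wells, after 72 hours of two-drug dosing of cells plated in 1536-well plates.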

[2] = system: SCC-9 (Oral Cavity Carcinoma)
Outline: as §1

[3] = system: NCI-N87 (Gastric Carcinoma)
Outline: as §1

[4] = system: GOTO (Neuroblastoma)
Outline: as §1

[5] = system: KYSE-150 (Esophageal Squamous Cell Carcinoma)
Outline: as §1

[6] = system: HC-1 (Other Blood Carcinomas)
Outline: as §1

[7] = system: EBC-1 (Squamous Cell Lung Carcinoma)
Outline: as §1

[8] = system: MFE-319 (Endometrial Carcinoma)
Outline: as §1

[9] = system: OVISE (Ovarian Carcinoma)
Outline: as §1

[10] = system: LC4-1 (B-Lymphoblastic Leukemia)
Outline: as §1

[11] = system: RPMI-7951 (Melanoma)
Outline: as §1

[12] = system: EW-13 (Ewing's Sarcoma)
Outline: as §1

[13] = system: EW-3 (Ewing's Sarcoma)
Outline: as §1

[14] = system: A704 (Kidney Carcinoma)
Outline: as §1

[15] = system: PF-382 (T-Lymphoblastic Leukemia)
Outline: as §1

[16] = system: NCI-H322M (Lung Adenocarcinoma)
Outline: as §1

[17] = system: BV-173 (Chronic Myelogenous Leukemia)
Outline: as §1

[18] = system: JHH-7 (Hepatocellular Carcinoma)
Outline: as §1

[19] = system: TGBC11TKB (Gastric Carcinoma)
Outline: as §1

[20] = system: NH-12 (Neuroblastoma)
Outline: as §1

Row | SMILES | combination Emax [1] | combination Emax [2] | combination Emax [3] | combination Emax [4] | combination Emax [5] | combination Emax [6] | combination Emax [7] | combination Emax [8] | combination Emax [9] | combination Emax [10] | combination Emax [11] | combination Emax [12] | combination Emax [13] | combination Emax [14] | combination Emax [15] | combination Emax [16] | combination Emax [17] | combination Emax [18] | combination Emax [19] | combination Emax [20]
1 | Cc1c2c(nn1C)CSCc1cc(n(C)n1)CSc1cc(c3ccccc3c1)OCCCc1c(C(=O)O)n(C)c3c-2c(Cl)ccc13 [AZD5991] + CN(C)CCCOc1ccc(-c2ccc3ncc4c(c3c2)n(C2CCOCC2)c(=O)n4C)cn1 [AZD0156] (first compound max 1 µM, 7x7, partner max 1 µM) | 0.774 | 0.269 | 0.45 | 0.757 | 0.453 | 0.37 | 0.251 | 0.78 | 0.283 | 0.962 | 0.945 | 0.401 | 0.662 | 0.24 | 0.337 | 0.279 | 0.95 | 0.14 | 0.476 | 0.226
2 | CC1(C)CCC(CN2CCN(c3ccc(C(=O)NS(=O)(=O)c4ccc(NCC5CCOCC5)c([N+](=O)[O-])c4)c(Oc4cnc5[nH]ccc5c4)c3)CC2)=C(c2ccc(Cl)cc2)C1 [Venetoclax] + Cc1cc2ncnn2cc1Nc1ncc2c(n1)n(C1CCOCC1)c(=O)n2C [AZD7648] (first compound max 1 µM, 7x7, partner max 10 µM) | 0.238 | 0.194 | 0.354 | 0.434 | 0.572 | 0.481 | 0.26 | 0.26 | 0.275 | 1 | 0.334 | 0.0496 | 0.735 | 0.32 | 0.355 | 0.414 | 0.811 | 0.134 | 0.133 | 0.538
3 | COc1nnc2ccc(N3CCC(c4ccc(OCCN5CCN(C)C(=O)[C@H]5C)cc4)CC3)nn12 [AZD5153] + CC1(C)CCC(CN2CCN(c3ccc(C(=O)NS(=O)(=O)c4ccc(NCC5CCOCC5)c([N+](=O)[O-])c4)c(Oc4cnc5[nH]ccc5c4)c3)CC2)=C(c2ccc(Cl)cc2)C1 [Venetoclax] (first compound max 1 µM, 7x7, partner max 1 µM) | 0.763 | 0.407 | 0.592 | 0.813 | 0.627 | 0.557 | 0.802 | 0.324 | 0.549 | 1 | 0.559 | 0.481 | 0.751 | 0.585 | 0.871 | 0.515 | 0.921 | 0.348 | 0.324 | 0.737
4 | Cc1c2c(nn1C)CSCc1cc(n(C)n1)CSc1cc(c3ccccc3c1)OCCCc1c(C(=O)O)n(C)c3c-2c(Cl)ccc13 [AZD5991] + CCN(CCO)CCCOc1ccc2c(Nc3cc(CC(=O)Nc4cccc(F)c4)[nH]n3)ncnc2c1 [AZD2811] (first compound max 1 µM, 7x7, partner max 1 µM) | 0.9 | 0.293 | 0.395 | 0.709 | 0.498 | 0.737 | 0.243 | 0.603 | 0.376 | 0.993 | 0.974 | 0.454 | 0.771 | 0.177 | 0.923 | 0.188 | 0.95 | 0.453 | 0.582 | 0.752
5 | CN(CCO)CC[C@H](CSc1ccccc1)Nc1ccc(S(=O)(=O)NC(=O)c2ccc(N3CCC([C@@H](O)c4ccccc4-c4ccc(Cl)cc4)CC3)cc2)cc1S(=O)(=O)C(F)(F)F [AZD4320] + CN(C)CCCOc1ccc(-c2ccc3ncc4c(c3c2)n(C2CCOCC2)c(=O)n4C)cn1 [AZD0156] (first compound max 1 µM, 7x7, partner max 1 µM) | 0.342 | 0.26 | 0.477 | 0.481 | 0.206 | 0.424 | 0.944 | 0.288 | 0.806 | 1 | 0.333 | 0.636 | 0.95 | 0.496 | 0.98 | 0.172 | 0.95 | 0.425 | 0.258 | 0.909
6 | CN(CCO)CC[C@H](CSc1ccccc1)Nc1ccc(S(=O)(=O)NC(=O)c2ccc(N3CCC([C@@H](O)c4ccccc4-c4ccc(Cl)cc4)CC3)cc2)cc1S(=O)(=O)C(F)(F)F [AZD4320] + Cn1cnc2c(F)c(Nc3ccc(Br)cc3Cl)c(C(=O)NOCCO)cc21 [Selumetinib] (first compound max 1 µM, 7x7, partner max 3 µM) | 0.801 | 0.67 | 0.604 | 0.85 | 0.359 | 0.972 | 0.991 | 0.522 | 0.786 | 1 | 0.526 | 0.933 | 0.906 | 0.642 | 1 | 0.642 | 0.963 | 0.276 | 0.469 | 0.998
7 | Cc1cc2ncnn2cc1Nc1ncc2c(n1)n(C1CCOCC1)c(=O)n2C [AZD7648] + C[C@@H]1COCCN1C2=NC(=NC(=C2)C3(CC3)[S@](=N)(=O)C)C4=C5C=CNC5=NC=C4 [AZD6738] (first compound max 10 µM, 7x7, partner max 10 µM) | 0.888 | 0.353 | 0.718 | 0.889 | 0.561 | 0.616 | 0.293 | 0.726 | 0.666 | 0.937 | 0.912 | 0.564 | 0.755 | 0.395 | 0.858 | 0.944 | 0.97 | 0.369 | 0.861 | 0.863
8 | Cc1cc2ncnn2cc1Nc1ncc2c(n1)n(C1CCOCC1)c(=O)n2C [AZD7648] + C=CCn1c(=O)c2cnc(Nc3ccc(N4CCN(C)CC4)cc3)nc2n1-c1cccc(C(C)(C)O)n1 [AZD1775] (first compound max 10 µM, partner max 1 µM) | 0.86 | 0.293 | 0.731 | 0.783 | 0.643 | 0.992 | 0.209 | 0.68 | 0.635 | 0.898 | 0.704 | 0.332 | 0.329 | 0.478 | 0.957 | 0.923 | 0.964 | 0.392 | 0.825 | 0.848
9 | CS(=O)(=O)CCNCc1ccc(-c2ccc3ncnc(Nc4ccc(OCc5cccc(F)c5)c(Cl)c4)c3c2)o1 [Lapatinib] + C[C@@H](Oc1cc(-c2cnn(C3CCNCC3)c2)cnc1N)c1c(Cl)ccc(F)c1Cl [Crizotinib] (first compound max 10 µM, 7x7, partner max 10 µM) | 0.909 | 0.964 | 0.978 | 1 | 0.984 | 0.898 | 1 | 0.511 | 0.888 | 0.963 | 0.975 | 0.285 | 0.91 | 0.905 | 0.978 | 0.876 | 0.94 | 0.614 | 0.622 | 0.873
10 | CN(C)CCCOc1ccc(-c2ccc3ncc4c(c3c2)n(C2CCOCC2)c(=O)n4C)cn1 [AZD0156] + C=CCn1c(=O)c2cnc(Nc3ccc(N4CCN(C)CC4)cc3)nc2n1-c1cccc(C(C)(C)O)n1 [AZD1775] (first compound max 1 µM, partner max 1 µM) | 0.88 | 0.168 | 0.726 | 0.865 | 0.448 | 0.994 | 0.165 | 0.63 | 0.7 | 0.916 | 0.687 | 0.444 | 0.357 | 0.379 | 0.954 | 0.77 | 0.995 | 0.136 | 0.895 | 0.877
11 | COc1cccc(OCCCN)c1-c1cc(Nc2cnc(C#N)cn2)n[nH]1 [Prexasertib] + C[C@@H]1COCCN1C2=NC(=NC(=C2)C3(CC3)[S@](=N)(=O)C)C4=C5C=CNC5=NC=C4 [AZD6738] (first compound max 1 µM, 7x7, partner max 10 µM) | 0.962 | 0.433 | 0.718 | 0.913 | 0.621 | 1 | 0.626 | 0.826 | 0.716 | 0.984 | 0.957 | 0.632 | 0.819 | 0.504 | 0.917 | 0.994 | 0.964 | 0.4 | 0.977 | 0.925
12 | CC1(C)CCC(CN2CCN(c3ccc(C(=O)NS(=O)(=O)c4ccc(NCC5CCOCC5)c([N+](=O)[O-])c4)c(Oc4cnc5[nH]ccc5c4)c3)CC2)=C(c2ccc(Cl)cc2)C1 [Venetoclax] + C1CN(CCC1(C(=O)N[C@@H](CCO)C2=CC=C(C=C2)Cl)N)C3=NC=NC4=C3C=CN4 [Capivasertib] (first compound max 1 µM, 7x7, partner max 3 µM) | 0.412 | 0.146 | 0.521 | 0.365 | 0.405 | 0.452 | 0.317 | 0.321 | 0.456 | 1 | 0.472 | 0.213 | 0.683 | 0.318 | 0.518 | 0.167 | 0.897 | 0.149 | 0.153 | 0.612
